System: PDE IV
Assay: Inhibition of PDE IV activity
Type: biochemical
Conditions: Inhibition of PDE IV activity (Table A)

| SMILES | -log IC50 |
| --- | --- |
| COc1ccc(C(=O)Nc2c(Cl)cncc2Cl)c2cc(C)oc12 [Compound 1, N-(3,5-Dichloropyrid-4-yl)-7-methoxy-2-methylbenzofuran-4-carboxamide] | 8.42 |
| CC(C)c1cc2c(C(=O)Nc3c(Cl)cncc3Cl)ccc(OC(F)F)c2o1 [Compound 4, N-(3,5-Dichloropyrid-4-yl)-7-difluoromethoxy-2-(1-methylethyl)benzofuran-4-carboxamide] | 9.72 |
| COc1ccc(C(=O)Nc2c(Cl)cncc2Cl)c2cc(C3CCCC3)oc12 [Compound 5, N-(3,5-Dichloropyrid-4-yl)-2-cyclopentyl-7-methoxybenzofuran-4-carboxamide] | 8.80 |

Results, then the compound that gave them:

| -log IC50 | SMILES |
| --- | --- |
| 9.28 | COc1ccc(C(=O)Nc2c(Cl)cncc2Cl)c2cc(C(C)C)oc12 [Compound 2, N-(3,5-Dichloropyrid-4-yl)-7-methoxy-2-(1-methylethyl)benzofuran-4-carboxamide] |
| 8.18 | COc1ccc(C(=O)Nc2c(Cl)cncc2Cl)c2cc(C(C)C)oc12 [Compound 3, N-(3,5-Dichloropyrid-4-yl)-7-methoxy-2-(1-methylethyl)benzofuran-4-carboxamide] |

Source: patent US6211203A, “Benzofuran-4-carboxamides” (Byk Gulden Lomberg Chemische Fabrik GmbH, priority 1996, dated 2001)
